What is called IC50 is the concentration at which inhibition is half-maximal.

SMILES strings stand for the structures. Where two headings read alike, the source gives them in different places.

Data set [1] relates to MV4-11 AML cells. The experiment in a line: Cell proliferation assay, single agents and FTI/FLT3 inhibitor combinations, MV4-11. It is filed as cell-based, human. The note with it: Homo sapiens, MV4-11; proliferation; FLT3 inhibitor alone or, in combination lines, in the combination. On the procedure: Dose responses for the individual compounds alone were determined for each cell line using a standard 72-hour cell proliferation assay (see FIGS. 6.1-6.8). The standard chemotherapeutic agent Cytarabine was used as a control cytotoxic agent in all experiments. […] The FLT3 inhibitors, Compounds A, B, C, D, E, F G and H individually have good potency (sub-micromolar) for the inhibition of FLT3 driven proliferation (compared to the first line cytotoxic agent Cytarabine and Tipifarnib) in cells that depend on FLT3 for growth. Each of these chemically distinct compounds alone has potential for the treatment of disorders related to FLT3, such as FLT3 positive AML. […] The FLT3 inhibitors tested had no effect on THP-1 proliferation. […] (See FIGS. 10.1-10.8 and Tables 1-3, hereafter.)
To statistically evaluate the synergy of a FLT3 inhibitor and an FTI in FLT3 dependent cell lines, dosing combinations were evaluated by the method of Chou and Talalay. See Chou T C, Talalay P. (1984) “Quantitative analysis of dose-effect relationships: the combined effects of multiple drugs or enzyme inhibitors.” Adv Enzyme Regul. 22:27-55. […] Using this method, multiple FTI and FLT3 combinations were evaluated. […]
Cell proliferation assay for MV4-11, Baf3-ITD, Baf3-FLT3 and THP-1 cells. […] Total cell growth is quantified as the difference in luminescent counts (relative light units, RLU) of cell number at Day 0 compared to total cell number at Day 3 (72 hours of growth and/or compound treatment). One hundred percent inhibition of growth is defined as an RLU equivalent to the Day 0 reading. […]
Combination Index Analysis. To determine growth inhibition synergy of a FTI and FLT3 inhibitor combination based on the method of Chou and Talalay (Chou and Talalay. See Chou T C, Talalay P. (1984) “Quantitative analysis of dose-effect relationships: the combined effects of multiple drugs or enzyme inhibitors.” Adv Enzyme Regul. 22:27-55. ), fixed ratio combination dosing with isobolar statistical analysis was performed. […]

Data set [2] has as its system MV4-11 tumor xenografts. The note with it: for reduction of final tumor weight compared to vehicle-treated group / tumor regression, decrease versus starting mean tumor volume on Day 1: 11 days; for decrease of mean tumor volume compared to vehicle-treated group: Day 11.
Protocol: The oral anti-tumor efficacy of a subset of the compounds of the invention was evaluated in vivo using a nude mouse MV4-11 human tumor xenograft regression model.
Data set [3] has as its system MV-4-11 tumor xenografts. The experiment in a line: In vivo combination study, FLT3 inhibitor Compound B and Tipifarnib, MV-4-11 xenografts. The note with it: for effect on tumor growth compared to Vehicle-treated group: nine days. As to the method: The effect of combination treatment of the FLT3 Inhibitor FLT3 inhibitors of Formula I′ and Tipifarnib (Zarnestra™) on the growth of MV-4-11 human AML tumor xenografts in nude mice was tested using FLT3 inhibitor Compound B. The in vivo study was designed to extend the in vitro observations to evaluate the potential for a synergistic anti-tumor effect of FLT3 inhibitor Compound B administered orally together with Tipifarnib to nude mice bearing established MV-4-11 tumor xenografts.

Data set [4] relates to FLT3. Kind of data set: FLT3 phosphorylation in MV4-11 tumors from treated mice (immunoblot). It counts as in vivo, human. The note with it: single dose 100 mg/kg po, tumors harvested 2 hours later. As to the method:
To establish further that FLT3 inhibitors of Formula I′ reached the expected target in tumor tissue, the level of FLT3 phosphorylation in tumor tissue obtained from vehicle- and compound-treated mice was measured. Results for FLT3 inhibitor Compound B (Compound 73 of Formula I′) and FLT3 inhibitor Compound C (Compound 74 of Formula I′) are shown in FIG. 3 and FIG. 4, respectively. For this pharmacodynamic study, a sub-set of 10 mice from the vehicle-treated control group were randomized into two groups of 5 mice each and then treated with another dose of vehicle or compound (100 mg/kg, po). Tumors were harvested 2 hours later and snap frozen for assessment of FLT3 phosphorylation by immunobloting.
Harvested tumors were processed for immunoblot analysis of FLT3 phosphorylation in the following manner: 100 mg of tumor tissue was dounce homogenized in lysis buffer (50 mM Hepes, 150 mM NaCl, 10% Glycerol, 1% Triton-X-100, 10 mM NaF, 1 mM EDTA, 1.5 mM MgCl2, 10 mM NaPyrophosphate) supplemented with phosphatase (Sigma Cat# P2850) and protease inhibitors (Sigma Cat #P8340). Insoluble debris was removed by centrifugation at 1000×g for 5 minutes at 4° C. Cleared lysates ([…] of total potein at 10 mg/ml in lysis buffer) were incubated with 10 μg of agarose conjugated anti-FLT3 antibody, clone C-20 (Santa Cruz cat # sc-479ac), for 2 hours at 4° C. with gentle agitation. […]
For orientation: In western blotting, separated proteins are transferred to a membrane and probed.

For the compound `CN1CCN(CCCOc2ccc3c(C4CCN(C(=O)Nc5ccc(N6CCOCC6)cc5)CC4)ncnc3c2)CC1` [FLT3 inhibitor Compound B, 4-{7-[3-(4-Methyl-piperazin-1-yl)-propoxy]-quinazolin-4-yl}-piperidine-1-carboxylic acid (4-morpholin-4-yl-phenyl)-amide], in data set [1], the concentration for half-maximal inhibition (IC50) worked out at 0.0313 µM. In addition, the results for the “reduction of final tumor weight compared to vehicle-treated group” value in data set [2] (10 mg/kg b.i.d. po), in data set [2] (30 mg/kg b.i.d. po) and in data set [2] (100 mg/kg b.i.d. po) were 48%, 85% and 99%, respectively. In addition, the “decrease of mean tumor volume compared to vehicle-treated group” value in data set [2] (10 mg/kg b.i.d. po) was found to be 44%; in data set [2] (30 mg/kg b.i.d. po), 84%; in data set [2] (100 mg/kg b.i.d. po), 94%. Moreover, the “tumor regression, decrease versus starting mean tumor volume on Day 1” value is on record as 42% in data set [2] (30 mg/kg b.i.d. po) and 77% in data set [2] (100 mg/kg b.i.d. po). The figures for the “effect on tumor growth compared to Vehicle-treated group” value in data set [3] (10 mg/kg bid po) and in data set [3] (20 mg/kg bid po) were “marginal significant inhibition of tumor growth” and “tumor growth stasis”, respectively. Further, the overt toxicity result in data set [3] (9-day treatment, either agent alone or in combination) is “No overt toxicity”. Further, in data set [4], the “level of FLT3 phosphorylation in MV4-11 tumors versus vehicle” value is given as “biologically significant reduction”.

The values above are taken from patent publication US20070004660A1, “Synergistic Modulation of Flt3 Kinase Using Alkylquinolines and Alkylquinazolines” (priority 2005, published 2007).
